The series in a line: Test of stability of all-trans-retinol in ethanol during preservation at 50° C. (residual retinol by HPLC). The settings on record: retinol 0.3% w/v in ethanol without stabilizer, 20 days of storage at 50° C., aerobic medium. The series is classed as physicochemical. As for the experimental part:
The stability of a retinoid is defined in accordance with the present invention by the percentage of retinoid which remains in its original form after the composition containing the retinoid has been stored for a given period and at a given temperature.
The study conditions are the following:
PEI at 0.25, 0.5 and 1% (by weight/volume) in ethanol;
All-trans-retinol marketed by Fluka at 0.3% (by weight/volume) in ethanol;
Aerobic medium with 55 vol % air and 45 vol % ethanol;
Preservation at 50° C. in an oven;
The level of residual retinol after one month of preservation at 50° C. in an aerobic medium (55% of volume of air) is monitored by HPLC (on a Spherisorb ODS1 C18 column) by elution with an H2O/CH3CO2H/CH3CO2NH4/acetonitrile:
The level of residual retinol after two months of storage at 50° C. in an aerobic medium (55 vol % air) is monitored by HPLC (same conditions as in Test 1).
The level of residual retinol after one month of storage at 50° C. in an aerobic medium (55 vol % air) is monitored by HPLC (same conditions as in Test 1).
From an alcoholic solution of retinol at 0.26%, the level of residual retinol after several days of storage of the formulae at 50° C. in aerobic medium (55 vol % of air) is monitored by HPLC. […]

As to `CC1=C(/C=C/C(C)=C/C=C/C(C)=C/CO)C(C)(C)CCC1` [retinol, All-trans-retinol], the Degradation of retinol is listed as around 99%.

Values taken from patent US6344206B1, “Combination of a retinoid with a polyamine polymer” (L'Oreal, priority 1997, dated 2002).
